# According to patent EP2832223A1, “HERBICIDAL COMPOSITION” (Ishihara Sangyo Kaisha, Ltd., priority 2012, dated 2013):
# What was measured:
# Format in all cases: in vivo
# [1] = system: green foxtail (Setaria viridis (L.) P.Beauv.); assay: Test Example 3: pot test, soil treatment, visual growth inhibition; settings: soil, read-out: Growth inhibition rate (%) of green foxtail Measured value
# Protocol: (§1) Upland field soil was put into a 1/1,000,000 ha pot, and seeds of green foxtail (Setaria viridis (L.) P.Beauv.) were sown. On the next day, predetermined amounts of ONEHOPE NYUZAI (tradename), Click (tradename) and SC formulation containing sulcotrione as an active ingredient (tradename: Mikado, manufactured by Bayer CropScience) were diluted with water (in an amount corresponding to 1,000 L/ha) and applied for soil treatment by a small sprayer.
# (§2) On the 27th day after treatment, the state of growth of the green foxtail was visually observed to determine the growth inhibition rate (%). The growth inhibition rate (%) (measured value) and the growth inhibition rate (%) calculated in the same manner as in the above Test Example 1 are shown in Table 3.
# [2] = system: Japanese millet (Echinochloa utilis Ohwi et Yabuno); assay: Test Example 9: pot test, soil treatment, visual growth inhibition; settings: soil, read-out: Growth inhibition rate (%) of Japanese millet Measured value
# Protocol: (§3) Upland field soil was put into a 1/300,000 ha pot, and seeds of Japanese millet (Echinochloa utilis Ohwi et Yabuno) were sown. On the next day, predetermined amounts of ONEHOPE NYUZAI (tradename), Click (tradename), Mikado (tradename) and a wettable powder containing bicyclopyrone prepared in accordance with a conventional formulation method were diluted with water (in an amount corresponding to 1,000 L/ha) and applied for soil treatment by a small sprayer.
# as §2, with “28th” for “27th”, “Japanese millet” for “green foxtail”, “9.” for “3.”
# [3] = system: velvetleaf (Abutilon theophrasti Medic.); assay: Test Example 16: pot test, soil and foliar treatment, visual growth inhibition; settings: read-out: Growth inhibition rate (%) of velvetleaf Measured value
# From the text: (§4) Upland field soil was put into a 1/1,000,000 ha pot, and seeds of velvetleaf (Abutilon theophrasti Medic.) were sown. When the velvetleaf reached 4.0 to 4.3-leaf stage, seeds of velvetleaf were further sown in the same pot assuming conditions such that weeds would later grow. Three days later, predetermined amounts of ONEHOPE NYUZAI (tradename), Click (tradename), Callisto (tradename), Mikado (tradename), a wettable powder containing bicyclopyrone as an active ingredient and Clio (tradename) were diluted with water in an amount corresponding to 300 L/ha and applied for soil treatment and for foliar treatment by a small sprayer.
# as §2, with “29th” for “27th”, “velvetleaf” for “green foxtail”, “16.” for “3.”
# [4] = system: velvetleaf (Abutilon theophrasti Medic.); assay: Test Example 14: pot test, soil and foliar treatment, visual growth inhibition; settings: read-out: Growth inhibition rate (%) of velvetleaf Measured value
# From the text: as §4, with “On the next day,” for “Three days later,”
# as §2, with “31 st” for “27th”, “velvetleaf” for “green foxtail”, “14.” for “3.”
# [5] = system: sunn-hemp (Crotalaria juncea L.); assay: Test Example 7: pot test, soil treatment, visual growth inhibition; settings: soil, read-out: Growth inhibition rate (%) of sunn-hemp Measured value
# Protocol: as §3, with “sunn-hemp (Crotalaria juncea L.)” for “Japanese millet (Echinochloa utilis Ohwi et Yabuno)”
# as §2, with “28th” for “27th”, “sunn-hemp” for “green foxtail”, “7.” for “3.”
# [6] = system: korean lespedeza (Kummerowia stipulacea (Maxim.) Makino); assay: Test Example 6: pot test, soil treatment, visual growth inhibition; settings: soil, read-out: Growth inhibition rate (%) of korean lespedeza Measured value
# Protocol: as §3, with “korean lespedeza (Kummerowia stipulacea (Maxim.) Makino)” for “Japanese millet (Echinochloa utilis Ohwi et Yabuno)”
# as §2, with “14th” for “27th”, “korean lespedeza” for “green foxtail”, “6.” for “3.”
# [7] = system: annual ragweed (Ambrosia artemisiifolia L.); assay: Test Example 11: pot test, soil treatment, visual growth inhibition; settings: soil, read-out: Growth inhibition rate (%) of annual ragweed Measured value
# Protocol: as §3, with “annual ragweed (Ambrosia artemisiifolia L.)” for “Japanese millet (Echinochloa utilis Ohwi et Yabuno)”
# as §2, with “28th” for “27th”, “annual ragweed” for “green foxtail”, “11.” for “3.”
# [8] = system: prickly sida (Sida spinosa L.); assay: Test Example 10: pot test, soil treatment, visual growth inhibition; settings: read-out: Growth inhibition rate (%) of prickly sida Measured value
# Protocol: (§5) Upland field soil was put into a 1/300,000 ha pot, and seeds of prickly sida (Sida spinosa L.) were sown. On the next day, predetermined amounts of ONEHOPE NYUZAI (tradename), Click (tradename), Spectrum (tradename), Callisto (tradename) and Clio (tradename) were diluted with water (in an amount corresponding to 1,000 L/ha) and applied for soil treatment by a small sprayer.
# as §2, with “28th” for “27th”, “prickly sida” for “green foxtail”, “10.” for “3.”
# [9] = system: wild oat (Avena fatua L.); assay: Test Example 2: pot test, soil treatment, visual growth inhibition; settings: 50 g/ha, 28th day after treatment, read-out: Growth inhibition rate (%) of wild oat Measured value
# Protocol: as §1, with “1/500,000” for “1/1,000,000”, “wild oat (Avena fatua L.)” for “green foxtail (Setaria viridis (L.) P.Beauv.)”, “mesotrione” for “sulcotrione”, “Callisto,” for “Mikado,”, “Syngenta)” for “Bayer CropScience)”
# as §2, with “28th” for “27th”, “wild oat” for “green foxtail”, “2.” for “3.”
# [10] = system: rostrate sesbania (Sesbania rostrata Bremek. & Oberm.); assay: Test Example 8: pot test, soil treatment, visual growth inhibition; settings: soil, read-out: Growth inhibition rate (%) of rostrate sesbania Measured value
# Protocol: as §5, with “rostrate sesbania (Sesbania rostrata Bremek. & Oberm.)” for “prickly sida (Sida spinosa L.)”, “Spectrum” for “Spectrum (tradename), Callisto”
# as §2, with “28th” for “27th”, “rostrate sesbania” for “green foxtail”, “8.” for “3.”
# [11] = system: Japanese millet (Echinochloa utilis Ohwi et Yabuno); assay: Test Example 5: pot test, soil treatment, visual growth inhibition; settings: soil, read-out: Growth inhibition rate (%) of Japanese millet Measured value
# Protocol: as §3, with “Click” for “Click (tradename), Mikado”, “SC formulation” for “a wettable powder”, “topramezone as an active ingredient (tradename: Clio, manufactured by BASF)” for “bicyclopyrone prepared in accordance with a conventional formulation method”
# as §2, with “28th” for “27th”, “Japanese millet” for “green foxtail”, “5.” for “3.”
# [12] = system: common cocklebur (Xanthium strumarium L.); assay: Test Example 12: pot test, foliar treatment, visual growth inhibition; settings: 250 g/ha, foliar treatment at 4.2 to 4.3-leaf stage, 28th day after treatment, read-out: Growth inhibition rate (%) of common cocklebur Measured value
# Protocol: Upland field soil was put into a 1/1,000,000 ha pot, and seeds of common cocklebur (Xanthium strumarium L.) were sown. When the common cocklebur reached 4.2 to 4.3-leaf stage, predetermined amounts of ONEHOPE NYUZAI (tradename), Click (tradename) and water dispersible granules containing flufenacet as an active ingredient (tradename: Cadou, manufactured by Bayer CropScience) were diluted with water (in an amount corresponding to 1,000 L/ha) and applied for foliar treatment by a small sprayer.
# as §2, with “28th” for “27th”, “common cocklebur” for “green foxtail”, “12.” for “3.”
# [13] = system: guinea grass (Panicum maximum Jacq.); assay: Test Example 15: pot test, soil and foliar treatment, visual growth inhibition; settings: Megathyrsus maximus, 250 g/ha, 31st day after treatment, read-out: Growth inhibition rate (%) of guinea grass Measured value
# Protocol: Upland field soil was put into a 1/1,000,000 ha pot, and seeds of guinea grass (Panicum maximum Jacq.) were sown. When the guinea grass reached 5.2 to 6.0-leaf stage, seeds of guinea grass were further sown in the same pot assuming conditions such that weeds would later grow. On the next day, predetermined amounts of ONEHOPE NYUZAI (tradename), Click (tradename), Spectrum (tradename) and Cadou (tradename) were diluted with water in an amount corresponding to 300 L/ha and applied for soil treatment and for foliar treatment by a small sprayer.
# as §2, with “31 st” for “27th”, “guinea grass” for “green foxtail”, “15.” for “3.”
smiles,measurement,setting,value
"CS(=O)(=O)c1ccc(C(=O)C2C(=O)CCCC2=O)c(Cl)c1 [Sulcotrione, 2-(2-chloro-4-mesylbenzoyl)cyclohexane-1,3-dione]",inhibition at 300 g/ha,[1],5%
same,inhibition at 50 g/ha,[2],20%
same,inhibition at 200 g/ha,[3],88%
same,inhibition at 100 g/ha,[4],88%
same,inhibition at 300 g/ha,[4],90%
same,inhibition at 50 g/ha,[5],10%
same,inhibition at 1000 g/ha,[6],15%
same,inhibition at 2000 g/ha,[7],85%
"CS(=O)(=O)c1ccc(C(=O)C2C(=O)CCCC2=O)c([N+](=O)[O-])c1 [Mesotrione, 2-(4-mesyl-2-nitrobenzoyl)cyclohexane-1,3-dione]",inhibition at 75 g/ha,"[3]; 75 g/ha, soil treatment and foliar treatment, 29th day after treatment",89%
same,inhibition at 25 g/ha,"[8]; 25 g/ha, soil treatment, 28th day after treatment",25%
same,inhibition at 50 g/ha,"[4]; 50 g/ha, soil treatment and foliar treatment, 31st day after treatment",91%
same,inhibition at 120 g/ha,"[4]; 120 g/ha, soil treatment and foliar treatment, 31st day after treatment",93%
same,inhibition at 50 g/ha,[9],0%
"Cc1c(C(=O)c2cnn(C)c2O)ccc(S(C)(=O)=O)c1C1=NOCC1 [Topramezone, [3-(4,5-dihydro-1,2-oxazol-3-yl)-4-mesyl-o-tolyl](5-hydroxy-1-methylpyrazol-4-yl)methanone]",inhibition at 100 g/ha,[10],80%
same,inhibition at 20 g/ha,[3],50%
same,inhibition at 40 g/ha,[11],30%
same,inhibition at 10 g/ha,[8]; soil,0%
same,inhibition at 10 g/ha,[4],8%
same,inhibition at 60 g/ha,[4],65%
"CC(C)N(C(=O)COc1nnc(C(F)(F)F)s1)c1ccc(F)cc1 [Flufenacet, 4'-fluoro-N-isopropyl-2-[5-(trifluoromethyl)-1,3,4-thidiazol-2-yloxy]acetanilide]",inhibition at 250 g/ha,[12],0%
same,inhibition at 250 g/ha,[13],50%
